Assay results reported in ChEMBL document CHEMBL3044558, “Structure-activity relationship development of dihaloaryl triazole compounds as insecticides and acaricides. 1. Phenyl thiophen-2-yl triazoles” (2007).
Activity calls are given as the source filed them. No cut-off for these calls is given here.

Key:
Trichoplusia ni [1] = assay: Insecticidal activity against Trichoplusia ni (cabbage looper) second-instar larvae infested on 400 ppm compound pre-treated cabbage leaf disk assessed as insect mortality measured 5 days post compound treatment under green house conditions; assay type: functional; details: at 400 ppm
Bemisia tabaci [2] = tested on: Bemisia tabaci
Heliothis virescens = assay: Insecticidal activity against Heliothis virescens (tobacco budworm) second-instar larvae infested on 400 ppm compound pre-treated cotton cotyledon disk assessed as insect mortality measured 5 days post compound treatment under green house conditions; assay type: functional
Spodoptera exigua = assay: Insecticidal activity against Spodoptera exigua second-instar larvae feeded on 400 ppm compound treated lepidopteran diet assessed as insect mortality measured 5 days post compound treatment under green house conditions; assay type: functional; details: at 400 ppm
Aphis gossypii [3] = tested on: Aphis gossypii
Tetranychus urticae = assay: Insecticidal activity against female Tetranychus urticae (two-spotted spider mite) infested cotton leaf disks followed by 2.5 ppm compound spraying after oviposit assessed as insect mortality measured after 6 days post compound application under green house conditions; assay type: functional; details: foliar, 144 h
Bemisia tabaci [4] = assay: Insecticidal activity against Bemisia tabaci (sweet potato whitefly) second-instar larvae infested five weeks old cotton plants followed by compound 250 ppm compound spraying after insect oviposit assessed as insect mortality measured 13 days post compound treatment under green house conditions; assay type: functional
Trichoplusia ni [5] = tested on: Trichoplusia ni
Aphis gossypii [6] = assay: Insecticidal activity against Aphis gossypii (cotton aphid) infested one week old Crookneck squash plants assessed as insect mortality at 50 ppm measured after 3 days post compound application under green house conditions; assay type: functional; details: 72 h

SMILES	mortality (Trichoplusia ni [1])	mortality (Bemisia tabaci [2])	mortality (Heliothis virescens)	mortality (Spodoptera exigua)	mortality (Aphis gossypii [3])	mortality at 2.5 ppm (Tetranychus urticae)	mortality (Bemisia tabaci [4])	mortality (Trichoplusia ni [5])	mortality at 50 ppm (Aphis gossypii [6])
CCOc1cccc(-c2cc(C)c(-c3nc(-c4c(F)cccc4Cl)nn3C)s2)c1	<50%	inactive	<50%	80%	inactive	70%	–	–	–
Cc1c(-c2nc(-c3c(F)cccc3Cl)nn2C)sc(Br)c1-c1ccc(OC(F)(F)C(F)Br)cc1 (configuration not stated)	–	–	90%	80%	–	90%	<50%	inactive	< 50%
Cc1cc(-c2ccc3c(c2)COC3)sc1-c1nc(-c2c(F)cccc2Cl)nn1C	70%	inactive	90%	60%	inactive	80%	–	–	–
Cn1nc(-c2c(F)cccc2Cl)nc1-c1sc(-c2ccc(-c3ccccc3)cc2)c(Cl)c1Cl	–	–	90%	50%	–	80%	<50%	inactive	90%
Cn1nc(-c2c(F)cccc2F)nc1-c1sc(-c2ccc(OC(F)(F)F)cc2)cc1Cl	<50%	inactive	80%	<50%	–	90%	–	–	80%
Cc1c(-c2ccc(OC(F)(F)F)cc2)sc(-c2nc(-c3c(F)cccc3Cl)nn2C)c1C	90%	–	<50%	80%	–	90%	70%	–	< 50%
CCOc1ccc(-c2cc(Cl)c(-c3nc(-c4c(F)cccc4F)nn3C)s2)cc1	<50%	inactive	90%	60%	inactive	80%	–	–	–
CCOc1ccc(-c2cc(Cl)c(-c3nc(-c4c(F)cccc4Cl)nn3C)s2)cc1	90%	inactive	60%	80%	inactive	90%	–	–	–
Cn1nc(-c2c(F)cccc2Cl)nc1-c1sc(-c2ccc(Br)cc2)cc1Cl	90%	inactive	90%	80%	–	90%	–	–	90%
Cn1nc(-c2c(F)cccc2Cl)nc1-c1sc(-c2ccc(C(F)(F)F)cc2)cc1Cl	90%	–	90%	60%	–	90%	<50%	–	90%
CCOc1ccc(-c2sc(-c3nc(-c4c(F)cccc4Cl)nn3C)c(C)c2C)cc1	80%	inactive	<50%	90%	–	90%	–	–	< 50%
Cc1cc(-c2cccc(C(F)(F)F)c2F)sc1-c1nc(-c2c(F)cccc2Cl)nn1C	90%	inactive	90%	60%	–	90%	–	–	60%
Cc1cc(C2=CCC(OC(=O)C(F)(F)Br)CC2)sc1-c1nc(-c2c(F)cccc2Cl)nn1C (configuration not stated)	–	–	90%	<50%	–	70%	–	inactive	< 50%
Cc1sc(-c2nc(-c3c(F)cccc3Cl)nn2C)c(C)c1-c1ccc(Cl)cc1	<50%	inactive	90%	80%	–	80%	–	–	50%
CCOc1ccc(-c2csc(-c3nc(-c4c(F)cccc4Cl)nn3C)c2C)cc1	90%	–	90%	80%	–	90%	90%	–	50%
Cc1cc(-c2ccc(F)cc2)sc1-c1nc(-c2c(F)cccc2Cl)nn1C	90%	inactive	90%	80%	–	60%	–	–	< 50%
CCOc1ccc(-c2sc(-c3nc(-c4c(F)cccc4Cl)nn3C)c(Cl)c2Br)cc1	<50%	inactive	90%	90%	–	60%	–	–	< 50%
Cc1sc(-c2nc(-c3c(F)cccc3Cl)nn2C)c(C)c1-c1ccc(OC(F)(F)C(F)Cl)cc1 (configuration not stated)	<50%	–	80%	80%	–	70%	80%	–	< 50%

SMILES	mortality (Trichoplusia ni [1])	mortality (Bemisia tabaci [2])	mortality (Heliothis virescens)	mortality (Spodoptera exigua)	mortality (Aphis gossypii [3])	mortality at 2.5 ppm (Tetranychus urticae)	mortality (Bemisia tabaci [4])	mortality (Trichoplusia ni [5])	mortality at 50 ppm (Aphis gossypii [6])
Cc1cc(C2CCC(OC(F)(F)C(F)Cl)CC2)sc1-c1nc(-c2c(F)cccc2Cl)nn1C (configuration not stated)	90%	–	90%	90%	–	80%	–	–	< 50%
Cc1sc(-c2nc(-c3c(F)cccc3Cl)nn2C)c(C)c1-c1ccc(OC(F)(F)F)cc1	<50%	–	90%	90%	–	90%	60%	–	70%
Cc1c(-c2ccc(OC(F)(F)C(Cl)Cl)cc2)csc1-c1nc(-c2c(F)cccc2Cl)nn1C	<50%	–	90%	90%	–	90%	90%	–	90%
Cc1c(-c2ccc(OC(F)=C(Cl)Cl)cc2)csc1-c1nc(-c2c(F)cccc2Cl)nn1C	<50%	–	90%	80%	–	90%	70%	–	70%
CSc1ccc(-c2cc(Cl)c(-c3nc(-c4c(F)cccc4Cl)nn3C)s2)cc1	80%	–	90%	60%	–	90%	<50%	–	60%
Cc1cc(-c2ccc(OC(F)(F)C(F)C(F)(F)F)cc2)sc1-c1nc(-c2c(F)cccc2Cl)nn1C (configuration not stated)	90%	–	90%	80%	–	90%	<50%	–	90%
Cc1cc(-c2ccc(Cl)cc2)sc1-c1nc(-c2c(F)cccc2Cl)nn1C	90%	–	90%	90%	–	90%	60%	–	60%
Cc1cc(-c2ccc(OC(C)C)cc2)sc1-c1nc(-c2c(F)cccc2Cl)nn1C	90%	–	80%	60%	inactive	60%	–	–	–
Cc1sc(-c2nc(-c3c(F)cccc3Cl)nn2C)c(C)c1-c1ccc(OC(F)(F)C(F)Br)cc1 (configuration not stated)	–	–	90%	80%	–	80%	80%	–	50%
Cn1nc(-c2c(F)cccc2Cl)nc1-c1sc(-c2ccc(OC(F)(F)F)cc2)c(Br)c1Cl	70%	–	90%	90%	–	80%	<50%	–	60%
Cc1cc(-c2ccc(C(F)(F)F)cc2)sc1-c1nc(-c2c(F)cccc2Cl)nn1C	90%	–	90%	90%	–	90%	<50%	–	< 50%
Cc1cc(-c2ccc(C(C)C)cc2)sc1-c1nc(-c2c(F)cccc2Cl)nn1C	90%	inactive	90%	70%	–	90%	–	–	< 50%
Cc1c(-c2ccc(OC(F)(F)C(F)C(F)(F)F)cc2)csc1-c1nc(-c2c(F)cccc2Cl)nn1C (configuration not stated)	90%	–	90%	60%	–	90%	90%	–	90%
Cc1c(-c2ccc(OC(F)(F)C(F)Cl)cc2)sc(-c2nc(-c3c(F)cccc3Cl)nn2C)c1C (configuration not stated)	<50%	–	90%	60%	–	80%	60%	–	< 50%
Cc1cc(-c2ccc(OC(F)(F)C(Cl)Cl)cc2)sc1-c1nc(-c2c(F)cccc2Cl)nn1C	80%	–	90%	90%	–	90%	50%	–	90%
Cc1c(-c2ccc(C(C)C)cc2)csc1-c1nc(-c2c(F)cccc2Cl)nn1C	50%	inactive	90%	80%	inactive	90%	–	–	–
Cc1cc(-c2ccc3c(c2)OCCO3)sc1-c1nc(-c2c(F)cccc2Cl)nn1C	80%	inactive	90%	80%	inactive	90%	–	–	–
Cc1cc(-c2cccc(C(F)(F)F)c2)sc1-c1nc(-c2c(F)cccc2Cl)nn1C	90%	inactive	<50%	70%	–	< 50%	–	–	< 50%
